Paper PMC8037910, “Effect of Chronic Administration of 5-(3-chlorophenyl)-4-Hexyl-2,4 -Dihydro-3H-1,2,4-Triazole-3-Thione (TP-315)—A New Anticonvulsant Drug Candidate—On Living Organisms” (International Journal of Molecular Sciences, 2021)

Columns and labels:
[1] = target: T1, CYP3A4 (Homo sapiens, UniProt P08684); experiment: Vivid CYP450 screening kit, CYP3A4; format: biochemical; conditions: 0.015 μg/mL, 20 min incubation, p > 0.05
T1 construct: purchased Thermo Fisher Scientific
Description: Possible inhibitory effect of TP-315 on the catalytic activity of human cytochrome CYP450 enzymes was tested using Vivid CYP450 screening kits (Thermo Fisher Scientific, Waltham, MA, USA) according to the manufacturer’s standard procedure (Vivid BOMCC substrate CYP2B6 blue, Vivid DBOMF substrate CYP3A4 green, Vivid DBOMF substrate CYP3A5 green, Vivid EOMCC substrate CYP2C19 blue, Vivid MOBFC substrate CYP2D6 cyan). The experiment was carried out in the endpoint test mode (reading after 20 min of incubation). The test compound was dissolved in DMSO (starting concentrations, 2.5× concentrated); to avoid the influence of the solvent on the enzyme activity, the results were compared with the solvent control. The influence of TP-315 on the activity of selected enzymes was tested at concentrations of 0.015, 0.1, 0.5, 1, 2.5, 5, and 10 μg/mL. The positive control compounds (inhibitors) were miconazole (for CYP2C19 and CYP2B6), quinidine (for CYP2D6), and ketoconazole (for CYP3A4 and CYP3A5). Inhibitor concentrations were selected according to the manufacturer’s recommendations to achieve ≥90% inhibition. All inhibitors were obtained from Sigma-Aldrich (St. Louis, MO, USA). The BioTek Synergy H1 reader (BioTek Instruments, Inc., USA) was used to read the fluorescence according to the manufacturer’s guidelines. The tests were performed in duplicate.

[2] = test system: Albino Swiss mice; experiment: Biochemical parameters of liver and renal function in serum after chronic administration; format: in vivo; conditions: 47.6 mg/kg i.p. for 14 days, unpaired t-test p > 0.05
Description: (§1) The experiments were carried out on adult male Albino Swiss mice weighing 20 ± 5 g. […] The mice from the control group (8 mice) received 0.9% NaCl solution i.p. once daily for 14 days.
(§2) After completion of the experimental procedure (on the 15th day—24h after the last injection), the animals were decapitated. Their livers and kidneys were collected for histopathological examination, while blood was drawn for biochemical and morphological tests and for HPLC-FL determination of TP-315 in serum.
For the determination of biochemical parameters (ALT, AST, GGT, creatinine, urea), whole blood was collected in clotting activator tubes (Sarstadt, Nümbrecht, Germany). To obtain serum, blood tubes were centrifuged at 4200 RPM for 10 min. Biochemical determinations were performed on an ERBA XL 640 analyzer (ERBA Mannheim, Germany) according to the manufacturer’s standard procedure. Whole blood for the determination of morphological parameters was collected in ethylenediaminetetraacetic acid (EDTA) tubes (Sarstadt, Nümbrecht, Germany). Morphological parameters were determined on the MYTHIC 18 Cormay analyzer (Cormay, Lublin, Poland) according to the manufacturer’s standard procedure.

[3] = Quantification of TP-315 in mouse serum by HPLC-FL; format: in vivo; conditions: male, Albino Swiss, ip, mice, 47.6 mg/kg i.p. for 14 days, 24 h after the last injection, mean ± SD, read-out: Mean measured concentration of TP-315 in the plasma of the mice
Description: as §1
as §2, with “serum. […]” for “serum.”
Serum samples for recovery study and quantification of the examined compound using the standard addition method were prepared by spiking 0.1 mL of TP-315 free serum or the serum of treated mice with 0.4 mL deionized water and 0.5 mL of the appropriate standard solution, providing a calibration range between 0.0125–0.05 mg/L (0.0125, 0.025, 0.0375, and 0.05 mg/L) and QC levels of 0.06, 0.12, and 0.18 mg/L. Investigated serum samples were treated in the same manner as the QCs. […]
The HPLC analysis was carried out using an Elite LaChrom HPLC Merck-Hitachi (Merck, Darmstadt, Germany) equipped with a fluorescence detector (L-2485U) and a column thermostat Jetstream 2 Plus (100375, Knauer). […] The fluorescence detection was performed at an excitation of 265 nm and an emission of 411 nm. […]

[4] = test system: Albino Swiss mice; experiment: Histopathological examination of kidneys and liver after chronic administration; format: in vivo; conditions: 47.6 mg/kg i.p. for 14 days, H&E staining, vs control group
Description: as §1, §2
The kidneys and livers of mice from the control and experimental groups were subjected to histopathological evaluation. The organs were fixed in 10% buffered formalin at pH 7.2 and then fixed with increasing concentrations of alcohol solutions, acetone, and xylene in paraffin blocks using a tissue processor (Leica TP-20, Leica Biosystems, Wetzlar, Germany). 4 μm thick tissue sections cut with a sledge microtome (Leica SR-200, Leica Biosystems, Wetzlar, Germany) were transferred onto slides. The preparations for the histopathological samples were stained with hematoxylin and eosin and evaluated under a light microscope (Nikon Eclipse E-600, […]). Reagents were purchased from Sigma-Aldrich (St. Louis, MO, USA).

T1 sequence (P08684 whole entry): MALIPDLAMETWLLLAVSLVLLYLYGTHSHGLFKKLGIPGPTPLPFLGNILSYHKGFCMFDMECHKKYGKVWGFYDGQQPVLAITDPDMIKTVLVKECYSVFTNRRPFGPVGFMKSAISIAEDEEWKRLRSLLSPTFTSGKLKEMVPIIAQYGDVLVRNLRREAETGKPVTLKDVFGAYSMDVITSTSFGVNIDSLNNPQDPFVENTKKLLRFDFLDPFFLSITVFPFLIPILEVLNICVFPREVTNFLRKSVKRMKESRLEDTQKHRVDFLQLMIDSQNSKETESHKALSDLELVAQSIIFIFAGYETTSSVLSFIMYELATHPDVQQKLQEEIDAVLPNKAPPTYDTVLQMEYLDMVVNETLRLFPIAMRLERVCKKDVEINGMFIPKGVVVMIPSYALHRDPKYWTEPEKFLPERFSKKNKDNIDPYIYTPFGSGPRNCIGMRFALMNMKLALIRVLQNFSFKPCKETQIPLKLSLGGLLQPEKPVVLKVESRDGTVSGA

## CCCCCCn1c(-c2cccc(Cl)c2)n[nH]c1=S [TP-315, 5-(3-Chlorophenyl)-4-hexyl-2,4-dihydro-3H-1,2,4-triazole-3-thione]
[1]
  Inhibition of CYP3A4 activity compared to the control: did not statistically significantly inhibit
[2]
  ALT in serum vs control group: did not differ statistically significant
  AST in serum vs control group: did not differ statistically significant
  Creatinine concentration in serum vs control group: not statistically significant
  GGT in serum vs control group: did not differ statistically significant
  Urea concentration in serum vs control group: not statistically significant
[3]
  concentration at 24 h: 14.5 ± 12.5 ng/mL
[4]
  Histopathological examination of kidneys: no differences in the microscopic structure of kidneys
  Histopathological examination of liver: normal organ without pathological changes
